Experimental data: patent publication US10273313B2, “Multimeric mannosides, a process for preparing the same and their uses as a drug” (CENTRE NATIONAL DE LA RECHERCHE SCIENTIFIQUE, priority 2012, dated 2019)
≈ marks a conversion by molar mass, not a printed value. Read-outs that look alike come from different tables or passages of the source.

Columns and labels:
[1] = test system: primary human peripheral venous blood monocyte-derived macrophages; experiment: Macrophage-mediated phagocytosis of aged PMN cells; assay type: cell-based; conditions: 500 nM
Description: To estimate the influence of mannose-based inhibitors on possible inhibition of phagocytosis we used primary human peripheral venous blood monocyte-derived macrophages and estimated their ability to phagocyte autologous and allogenic human blood-derived PMN cells, as described by us previous (Bilyy, R. O. et al. (2012) J Biol Chem 287, 496-503).
Primary human PMN and MoMa from healthy volunteers were used. Monocytes were isolated from peripheral blood by LymphoPrep® gradient according to manufacture's recommendations for isolation of PBMC fraction. Plastic-attached cells of PBMC fraction were then cultured for 7 days in the presence of GM-CSF (100 U/ml) and autologous serum (added at days 1, 3 and 5) to generate MoMa. After 7 days of differentiation, the MoMa population was tested. They typically contain >95% CD11b+ cells, >90% CD14+ cells and >85% CD89+ cells. Phagocytosis was assessed by pre-incubation of PMN (freshly isolated or aged for 24 h) with mannose-based inhibitor for 30 min at 37° C. at Ringer buffer. Cells were thoroughly washed three times with Ringer solution and incubated with human MoMa for 2 hours. Uningested PMN were analyzed by flow cytometry (for this reason cells were pre-stained with CFSE (Rodel, F. et al. (2005) Strahlentherapie and Onkologie: Organ der Deutschen Rontgengesellschaft . . . [et al] 181, 456-462)) or in the hemocytometric chamber using Zeiss AxioImager A1 microscope. The percentage of prey cells that had been bound to or taken up by MoMa (% of phagocytosis) was calculated.

[2] = test system: type-1 piliated clinical E. coli isolate UTI89; experiment: Haemagglutination inhibition assay (HIA), guinea pig erythrocytes; assay type: cell-based, Escherichia coli; conditions: read-out: Minimal inhibitory concentration (MIC) on haemagglutination
Method: Haemagglutination is observed as the red blood cells being held in suspension through the formation of a space-filling cross-linked network with the fimbriated bacteria.
The UIT89 clinical isolate was grown statically 37° C. for 48 hours in LB medium and analysed for haemagglutination of guinea pig red blood cells. Both bacteria and red blood cells (RBCs) were washed 3 times in ice-cold PBS (17 mM K/NaH2PO4, 150 mM NaCl). PBS was used for all dilutions. 96-well round-bottom microtiter plates were used for the dilutions. The titer for agglutination was determined in a 2-fold dilution series in PBS of the bacteria in a volume of 25 μL. Well 1 is a negative control without bacteria but 25 μL PBS. 25 μL PBS and 50 μL 5% RBCs were added to a final 100 μL volume. Upon 1 hour at 4° C., the titer was determined as the lowest concentration of bacteria that led to haemagglutination.
A bacterial concentration of twice the determined haemagglutination titer was kept constant in the haemagglutination inhibition assays. First, a 2-fold dilution series of the inhibitory compounds was performed in 25 μL PBS. Instead, in well 1 only 25 μL PBS was added as a negative control. 25 μL of the bacterial solution and 50 μl of 5% red blood cells were added to reach a final volume of 100 μL.

[3] = test system: bladder cell line 5637; experiment: Anti-adhesives for bacterial bladder cell binding; assay type: cell-based; conditions: ten-fold dilution series
Method: The anti-adhesive capacities of the HM-derivatized cyclodextrins 1-4 were tested in vitro on the bladder cell line 5637, in a procedure analogous as previously described (Wellens, A. et al., PLoS ONE 3: e2040 (2008)). The CD conjugates 1-4 were diluted in a ten-fold series. The minimum inhibitory concentrations (MIC) indicate the concentrations of sugars at which we see some inhibition of binding of FimH to the bladder cells, they do however not indicate complete inhibition. MIC values for the CD-conjugates 1-4 followed a similar trend as the inhibitory concentrations recorded in HIA.
The anti-adhesive capacities of the n-heptyl α-D-mannoside-derivatized cyclodextrins 1-4 were tested in vitro on the bladder cell line 5637, in a procedure analogous to as described in (Wellens, A. et al., PLoS ONE 3: e2040 (2008)). The ligands have been diluted 10-fold and this is also the resolution limit of these tests.

[4] = test system: E. coli strain UTI89 in the bladder of C3H/HeN mice; experiment: In vivo inhibition in the murine cystitis model (instillation with UTI89)
Method: In vivo inhibition was evaluated by instilling 1-4 together with the UTI89 strain via a catheter in the bladder of C3H/HeN mice. […] A group of ten animals was used for each concentration of antagonists. […] The animals were sacrificed at a 6 h post infection time.
A murine model of urinary tract infection was used to test the ability of the compounds to inhibit the colonization of UTI89 in the bladder [Hung C. S.; Dodson, K. W., Hultgren S. J. Nat. Protoc. 2009, 4, 1230-1243 and Wellens A.; Garofalo C.; Nguyen H.; Van Gerven N.; Slättegård R.; Hernalsteens, J.-P.; Wyns, L.; Oscarson, S.; De Greve H.; Hultgren S. J.; Bouckaert, J. PLoS ONE 2008, 3, e2040]. The solution with high concentration of compounds was added to the resuspension of UTI89 before given to the mice. The eight-week old Female C3H/HeN mice (Harlan, Horst, The Netherlands) were anesthetized and infected via transurethral catheterization of 10^7 CFU UTI89 in solution in PBS, or in PBS with the compound in the mentioned concentration. The mice were sacrificed at 24 hours post infection and the bladders were harvested, homogenized and resuspended in PBS. The serial dilutions were spot on LB medium agar plates. The bacterial load was determined by counting the CFU recovered from the bladder. The animal experiments were approved by the Ethical Committer for Animal Experiments of Vrije Universiteit Brussel and complied with all relevant national legislation and institutional policies. The Mann-Whitney test was applied for the comparison of the data obtained from the untreated group and inhibition group in GraphPad Prism version 5.1 and two tailed P value were shown (GraphPad software).
A limited number of papers described the in vivo efficiency of anti-adhesive mannosides to treat UTIs.

[5] = molecular target: T1, monovalent lectin domain of FimH (Escherichia coli, UniProt P08191); assay type: binding; conditions: for Kd / Molar ratio n meas / ΔG° / ΔH° / ΔS°: direct titration; for Kd: read-out: Kd
T1 construct: with the monovalent lectin domain of FimH were measured using isothermal calorimetry (ITC)

[6] = test system: AIEC strain LF82 adhesion to T84 intestinal epithelial cells; experiment: Adhesion assay on T84 cells with thiazolylaminomannosides (Example 22.3); assay type: cell-based, Escherichia coli
Method: T84 Intestinal Epithelial cells (overexpressing the receptor CEACAM6) were beforehand incubated for 1 h with the synthetic thiazolylaminomannosides 6-20 (examples 3-17) at different concentrations. Each compound was tested four times at concentrations of 0.1, 1, 10 and 100 μM.
The cells were then infected in the presence of inhibitory compounds by the AIEC strain of reference LF82 for 3 hours at a multiplicity of infection of 10 bacteria to a cell. After 3 h of incubation, the monolayer was washed and the number of AIEC bacteria associated with cells was counted. The level of adhesion of AIEC LF82 strain in the presence of inhibitors (residual adhesion) was expressed relatively to the level of adherence in the absence of any treatment (considered 100%) (FIG. 10).

[7] = test system: AIEC LF82 strain adhesion to T84 intestinal epithelial cells; experiment: Adhesion assay on T84 cells, cells incubated 1 h with mannoside prior infection (Example 21.1); assay type: cell-based, Escherichia coli
Method: E. coli strain LF82 was isolated from a chronic ileal lesion of a patient with Crohn's disease (CD). Bacteria were grown routinely in Luria-Bertani (LB) broth overnight at 37° C. Intestinal epithelial cells T84 derived from colonic adenocarcinoma were maintained in an atmosphere containing 5% CO2 at 37° C. in DMEM/F12 (50/50) medium supplemented with 10% (v/v) heat-inactivated fetal calf serum (FCS), 1% L-glutamine, 100 000 U·l^−1 penicillin, 100 mg·l^−1 streptomycin, 25 μg·l^−1 amphotericin B.
T84 cells were seeded in 48-well tissue culture plates with 1.5×10^5 cells per well and grown for 48 h. Cells were incubated 1 h prior infection with each mannoside at a final concentration of 100; 10; 1 or 0.1 μM in complete medium without antibiotics, containing heat inactivated fetal calf serum (FCS) and were next infected with AIEC LF82 strain at a multiplicity of infection (MOI) of 10 bacteria per cell. After a 3 h incubation period at 37° C., the monolayers were washed in phosphate-buffered saline (PBS; pH 7.2). The epithelial cells were then lysed with 1% Triton X-100 in deionized water. Samples were diluted and plated onto Luria Bertani agar plates to determine the number of cfu recovered from the lysed monolayers.
Results were expressed in percentage of residual adhesion, considering adhesion level of AIEC LF82 without mannoside treatment as 100%.

[8] = molecular target: T2, lectin domain of FimH (Escherichia coli, UniProt P08191); experiment: Surface plasmon resonance solution competition assay; assay type: binding; conditions: solution affinity, inhibition of FimH binding to immobilized mannoside, CM5 chip
T2 construct: The lectin domain of FimH was expressed as described previously and purified at pH 4.0; made in house
Method: The affinity of the compounds was first evaluated and then measured in a surface plasmon resonance solution competition assay. The lectin domain of FimH was expressed as described previously and purified at pH 4.0 in 50 mM HCOOH on a SPFF (sulfopropyl fast flow) ion exchange column (GE Healthcare). A CM5 sensor chip (Biacore, GE Healthcare) has been coated with a layer of amino-functionalized monovalent heptyl mannoside to 60 RU (response units) and the kinetics of FimH binding to the sensor chip has been determined. All data collection have been performed in HBS buffer complemented with 3 mM EDTA and 0.01% Tween20. Regeneration was done with a single 10 s injection of 100 mM NaOH in water.
The solution affinity provided by the Biacore software uses the equation (B−A−Kd)/2+(0.25*(A+B+Kd)^2−A*B)^0.5, with B presenting the uninhibited concentration of FimH, and A the variable compound concentration.

[9] = test system: UTI89 E. coli; experiment: Inhibition of haemagglutination (Example 19); assay type: cell-based, Escherichia coli; conditions: two-fold dilution from 1 mM
Method: Interaction of E. coli FimH adhesins with the glycocalyx of guinea pig erythrocytes forms a cross-linked network into the wells. Glycoconjugates added in a two-fold dilution series prevents the agglutination reaction. The inhibition titer is defined as the lowest concentration of the glycoconjugate at which haemagglutination is still inhibited. UTI89 E. coli were grown statically overnight in LB at 37° C., washed three times in ice-cold phosphate-buffered saline and resolubilized. A two-fold dilution of glycoconjugates was prepared in 25 μL 20 mM HEPES pH 7.4 with 150 mM NaCl, starting from 1 mM as the highest concentration. The bacterial solution (25 μL) was added to the two-fold dilution series of the compound. Finally 50 μl of guinea pig red blood cells, washed in buffer and diluted to 5%, were added to a final 100 μL and left on ice for 30 min. before read-out. Due to serial dilutions, the maximal error is ±one well, or a factor two (FIG. 2).

[10] = excluding spiky heat signals (2)

T1 sequence (P08191 22-179): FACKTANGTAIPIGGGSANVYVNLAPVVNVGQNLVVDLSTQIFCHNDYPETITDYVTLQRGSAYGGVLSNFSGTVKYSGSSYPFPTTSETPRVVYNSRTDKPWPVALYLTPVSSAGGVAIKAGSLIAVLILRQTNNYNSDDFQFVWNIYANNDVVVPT
T2 sequence (P08191 22-179): as above

## CO[C@H]1O[C@H](CO)[C@@H](O)[C@H](O)[C@@H]1O [αMM, α-D-methyl mannoside]
[1]
  Phagocytosis rate: significantly decreased phagocytosis rate

## OCC1OC(OCCCCCCCOCc2cn(CCOCCOCCOCc3cn(CC4OC5OC6C(CO)OC(OC7C(CO)OC(OC8C(CO)OC(OC9C(CO)OC(OC%10C(CO)OC(OC%11C(CO)OC(OC4C(O)C5O)C(O)C%11O)C(O)C%10O)C(O)C9O)C(O)C8O)C(O)C7O)C(O)C6O)nn3)nn2)C(O)C(O)C1O (stereo not shown) [Compound 3]
[2]; UTI89 1.2 10^9 CFU/ml
  MIC: 200 µM (≈ 341 µg/mL)
[2]; UTI89 1.4 10^8 CFU/ml
  MIC: 50 µM (≈ 85.3 µg/mL)
[2]; UTI89 7 10^7 CFU/ml
  MIC: 31 µM (≈ 52.9 µg/mL)
[3]
  MIC, anti-adhesive potency on bladder cell line 5637: >400000 nM
[4]; 0.1 mM
  Inhibition efficiency at decreased concentration: important drop in the inhibition efficiency
[4]; instillation of 1 mM with UTI89
  Reduction of the level of infection: 10 fold
[5]; ITC
  Affinity of FimH for the ligand (in words): micromolar range
[5]; data processed to exclude spiky heat signals (2)
  Kd: 1950 nM
[5]; data processed to include the whole binding event (1)
  Kd: 4570 nM
[5]; [10]
  Molar ratio n meas: 0.57
  ΔG°: -7.7 kcal/mol
  ΔH°: -4.8 kcal/mol
  ΔS°: 9.9 cal/mol/deg
[5]; whole binding event (1)
  Molar ratio n meas: 0.45
  ΔG°: -7.2 kcal/mol
  ΔH°: -10.0 kcal/mol
  ΔS°: −9.6 cal/mol/deg

## O=C[C@@H](O)[C@@H](O)[C@H](O)[C@H](O)CO [mannose, reference compound]
[6]
  Concentration necessary to achieve a similar percentage of residual adhesion (decrease greater than 95%): 100 mM
[6]; 100 μM
  Decrease of adherence to intestinal epithelial cells: about 25%
[7]
  Concentration reaching around 75% of binding inhibition (25% line): 50000 µM

## COc1ccn([C@H]2OC(CO)[C@@H](O)C(O)C2O)c(=S)n1 (stereo partly drawn) [NM30, 1-(2,3,4,6-tetrahydroxy-α-D-mannopyranosyl)-4-methoxypyrimidine-2(1H)-(thi)one]
[8]
  Kd: 920 nM
[9]
  Inhibitory potency in haemagglutination (FIG. 2): non-effectiveness

## Nc1ccn([C@H]2OC(CO)[C@@H](O)C(O)C2O)c(=S)n1 (stereo partly drawn) [NM34, 4-amino-1-(2,3,4,6-tetrahydroxy-α-D-mannopyranosyl)pyrimidine-2(1H)-(thi)one]
[8]
  Kd: 2370 nM
[9]
  Inhibitory potency in haemagglutination (FIG. 2): non-effectiveness
